Experimental data from patent US20260315487A1, “IKK-ALPHA INHIBITORS” (Cancer Research Technology Limited, priority 2023, published 2026).
pKi: −log10 of the molar value. Where two headings read alike, the source gives them in different places.

Legend:
IKKα = biological target: T1, IKKα (Homo sapiens, UniProt O15111); experiment: in-house DELFIA kinase assay, IKKα; format: biochemical
T1 sequence (O15111 1-745): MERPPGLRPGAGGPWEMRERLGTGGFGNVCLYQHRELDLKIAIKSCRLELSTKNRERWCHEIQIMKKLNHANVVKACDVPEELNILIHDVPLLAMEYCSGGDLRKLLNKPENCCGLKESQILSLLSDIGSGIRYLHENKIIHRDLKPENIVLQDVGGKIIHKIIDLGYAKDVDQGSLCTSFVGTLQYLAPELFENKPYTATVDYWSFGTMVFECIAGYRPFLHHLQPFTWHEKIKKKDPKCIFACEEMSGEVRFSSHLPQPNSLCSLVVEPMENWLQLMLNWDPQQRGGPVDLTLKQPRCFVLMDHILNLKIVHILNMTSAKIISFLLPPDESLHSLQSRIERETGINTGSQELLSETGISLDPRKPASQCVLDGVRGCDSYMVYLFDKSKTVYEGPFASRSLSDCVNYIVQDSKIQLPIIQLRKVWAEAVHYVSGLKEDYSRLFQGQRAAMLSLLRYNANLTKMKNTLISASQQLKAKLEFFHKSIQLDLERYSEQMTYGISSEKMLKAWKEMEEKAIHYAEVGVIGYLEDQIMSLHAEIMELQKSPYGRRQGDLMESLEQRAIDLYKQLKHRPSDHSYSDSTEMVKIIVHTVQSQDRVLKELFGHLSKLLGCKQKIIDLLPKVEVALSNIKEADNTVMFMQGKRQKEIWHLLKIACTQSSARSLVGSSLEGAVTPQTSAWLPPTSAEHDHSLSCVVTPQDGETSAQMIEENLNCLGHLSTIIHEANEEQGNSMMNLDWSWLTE

panel of kinases = experiment: kinome profiling at 1 μM; format: biochemical
Source text: (§1) We profiled three compounds from the series across the kinome (FIG. 11). […] To identify the structural drivers for CDK inhibition, we obtained X-ray crystal structures of 5 y and 6 g SU1336 and SU1349 with CDK-2 (FIG. 12A) to potentially identify possible routes towards introducing selectivity for IKKα over the CDK enzymes as well as IKKβ. […] All three derivatives form complexes with CDK2 with the pyrrolo[2,3 -b]pyridine H-bonding to GK+3 (Leu 83 ) and the aminoindazole projected towards the G-loop (FIG. 12A), forming H-bonds with Glu 51 and Lys 33 at the back of the pocket. The adoption of the 4 SU1253 -type orientation, rather than the flipped pose observed in IKKα, is probably facilitated by Tr-stacking between the aminoindazole and the GK residue, which in the CDKs is Phe, rather than Met. […] For 6 g SU1349, the hydrophobic pendant benzyloxy group points out into solvent, but can form face-to-edge Tr-Tr interactions with Phe 82 and His 84 from the hinge. Exchanging the hydrophobic pendant benzyloxy group for the morpholinoethyl-containing substituent in 5 y SU1336 removes any direct interaction with these hinge residues, preferring to sit in a more solvent-exposed position, as befits a basic side chain that will be protonated at physiological pH (FIG. 12B).
(§2) Black, 4 SU1253; grey, 5 r SU1261; diagonal stripes, 6 g SU1349. […] All tested compounds (4 SU1253, 5 r SU1261 and 6 g SU1349 ) inhibited CDK5 and CDK9 with >80 %.

CDK5 = CDK5 (Homo sapiens, UniProt Q00535); experiment: kinome profiling at 1 μM, CDK5; format: biochemical; settings: read-out: % inhibition of CDK5
Source text: as §1, §2

CDK9 = CDK9 (Homo sapiens, UniProt P50750); experiment: kinome profiling at 1 μM, CDK9; format: biochemical; settings: read-out: % inhibition of CDK9
Source text: as §1, §2

PRAK = biological target: T2, PRAK (Homo sapiens, UniProt Q8IW41); experiment: kinome profiling at 1 μM, PRAK; format: biochemical
T2 sequence (Q8IW41 1-473): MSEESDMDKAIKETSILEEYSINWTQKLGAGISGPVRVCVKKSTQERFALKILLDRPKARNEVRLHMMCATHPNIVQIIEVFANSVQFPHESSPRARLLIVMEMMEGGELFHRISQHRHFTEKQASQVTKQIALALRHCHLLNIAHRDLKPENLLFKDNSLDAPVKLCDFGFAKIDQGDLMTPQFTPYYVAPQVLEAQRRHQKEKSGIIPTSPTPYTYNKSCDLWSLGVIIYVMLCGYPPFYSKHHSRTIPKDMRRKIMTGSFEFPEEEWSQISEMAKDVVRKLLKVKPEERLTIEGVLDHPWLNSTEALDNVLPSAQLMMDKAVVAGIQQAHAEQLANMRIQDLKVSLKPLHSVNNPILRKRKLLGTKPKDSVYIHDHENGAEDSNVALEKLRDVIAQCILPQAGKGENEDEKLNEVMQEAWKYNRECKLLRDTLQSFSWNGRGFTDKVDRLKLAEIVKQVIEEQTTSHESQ
Source text: as §1

[1] = mouse hepatocyte clearance (cryopreserved pooled mouse CD1 hepatocytes); format: in vitro ADME; settings: mouse, hepatocytes; 1 μM; 0.5×10^6 cells/mL; 37° C.
Experimental: Pharmacokinetic studies were contracted to Sygnature Discovery Limited. Intrinsic clearance and half life were determined using cryopreserved pooled mouse CD1 hepatocytes. Test compounds were analysed at 1 μM in Williams Media E buffer (0.01 % DMSO) at a cell density of 0.5×10^6 cells mL^−1 . Cells were incubated at 37° C. for one hour with shaking and compound depletion was measured by LC-MS/MS at six timepoints (0.25, 5, 10, 20, 40, and 60 minutes).

Sequence of CDK5 (Q00535 whole entry, species assumed): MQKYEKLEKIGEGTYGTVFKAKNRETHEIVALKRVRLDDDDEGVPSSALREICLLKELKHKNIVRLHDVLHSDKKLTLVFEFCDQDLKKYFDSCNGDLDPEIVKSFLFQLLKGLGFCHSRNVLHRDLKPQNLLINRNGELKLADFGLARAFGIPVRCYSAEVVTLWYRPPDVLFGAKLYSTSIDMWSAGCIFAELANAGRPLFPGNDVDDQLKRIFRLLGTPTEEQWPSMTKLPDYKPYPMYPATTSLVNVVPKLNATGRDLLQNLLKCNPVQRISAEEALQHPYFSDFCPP
Sequence of CDK5 (Q15078 99-307 partner limits assumed, species assumed): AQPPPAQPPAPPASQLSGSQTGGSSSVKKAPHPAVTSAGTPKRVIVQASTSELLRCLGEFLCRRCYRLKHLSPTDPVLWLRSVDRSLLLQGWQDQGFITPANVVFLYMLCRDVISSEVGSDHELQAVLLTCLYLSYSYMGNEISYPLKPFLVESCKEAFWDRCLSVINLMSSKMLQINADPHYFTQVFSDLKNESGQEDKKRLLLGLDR
Sequence of CDK9 (P50750 whole entry, species assumed): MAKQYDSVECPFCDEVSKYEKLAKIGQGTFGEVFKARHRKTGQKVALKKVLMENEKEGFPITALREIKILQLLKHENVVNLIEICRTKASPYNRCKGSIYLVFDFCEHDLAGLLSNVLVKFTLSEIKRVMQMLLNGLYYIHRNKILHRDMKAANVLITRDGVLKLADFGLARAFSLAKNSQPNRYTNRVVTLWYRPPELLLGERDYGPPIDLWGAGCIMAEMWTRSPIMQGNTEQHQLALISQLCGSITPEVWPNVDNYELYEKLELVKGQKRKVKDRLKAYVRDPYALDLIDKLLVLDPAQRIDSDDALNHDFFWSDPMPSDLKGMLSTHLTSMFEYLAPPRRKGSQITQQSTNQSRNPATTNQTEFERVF
Sequence of CDK9 (O60563 whole entry partner, species assumed): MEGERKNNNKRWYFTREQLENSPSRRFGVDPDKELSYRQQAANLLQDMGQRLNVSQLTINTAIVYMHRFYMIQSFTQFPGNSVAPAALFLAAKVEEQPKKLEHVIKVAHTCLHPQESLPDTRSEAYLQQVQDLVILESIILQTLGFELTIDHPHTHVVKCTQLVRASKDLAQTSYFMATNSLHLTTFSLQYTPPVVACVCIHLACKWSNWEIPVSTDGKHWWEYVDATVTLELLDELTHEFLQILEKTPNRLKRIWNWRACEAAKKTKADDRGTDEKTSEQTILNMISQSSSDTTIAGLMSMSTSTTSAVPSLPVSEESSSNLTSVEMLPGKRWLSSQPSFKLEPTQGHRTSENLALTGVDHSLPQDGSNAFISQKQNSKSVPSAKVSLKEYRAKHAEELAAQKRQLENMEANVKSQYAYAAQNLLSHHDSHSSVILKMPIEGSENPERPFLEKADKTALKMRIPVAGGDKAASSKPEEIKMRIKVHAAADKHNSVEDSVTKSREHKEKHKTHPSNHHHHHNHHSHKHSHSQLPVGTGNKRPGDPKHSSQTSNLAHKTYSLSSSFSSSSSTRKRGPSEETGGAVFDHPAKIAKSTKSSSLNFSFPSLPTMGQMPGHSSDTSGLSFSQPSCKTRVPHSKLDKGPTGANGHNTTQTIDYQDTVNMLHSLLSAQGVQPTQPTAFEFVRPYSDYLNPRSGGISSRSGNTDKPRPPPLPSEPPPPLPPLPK

pKi (IKKα)	inhibition at 1 µM (CDK5; 1 μM) [%]	inhibition at 1 µM (CDK9; 1 μM) [%]	inhibition at 1 µM (PRAK) [%]	hepatocyte CLint [1] [µL/min/1e6 cells]	inhibition at 1 µM (CDK5) [%]	inhibition at 1 µM (CDK9) [%]	SMILES	number of kinases inhibited by >80 % (panel of kinases; panel of 231 kinases) [kinases]	number of kinases inhibited by >80 % (panel of kinases; panel of 253 kinases (FIG. 11)) [kinases]	off-target inhibition of PRAK, in words (PRAK; compared with 5r SU1261)
8.00	> 80	> 80	> 80	38	–	–	Nc1n[nH]c2ccc(-c3ccnc4[nH]c(-c5cccc(OCc6ccccc6)c5)cc34)cc12 [5r SU1261, 5-(2-(3-(benzyloxy)phenyl)-1 H-pyrrolo[2,3-b]pyridin-4-yl)-1 H-indazol-3-amine]	10	10	–
7.80	–	–	–	27	> 80	> 80	Nc1n[nH]c2ccc(-c3ccnc4[nH]c(-c5ccnc(OCc6ccccc6)c5)cc34)cc12 [6g SU1349, 5-(2-(2-(Benzyloxy)pyridin-4-yl)-1 H-pyrrolo[2,3-b]pyridin-4-yl)-1 H-indazol-3-amine]	–	4	significantly reduced off-target inhibition
